Here are results for 31 compounds from US20240383901A1, “SUBSTITUTED PYRROLO[2,3-D]PYRIMIDINES, THEIR PREPARATION AND THEIR THERAPEUTIC APPLICATION” (SANOFI, priority 2021, published 2024).

Experiment [1] has as its target T1, full-length LRRK2 wild type (Homo sapiens, UniProt Q5S007).
T1 construct: DYDDDDK tagged full-length LRRK2 wild type is used
Put plainly: LRRK2 WT assay (Assay A, Lanthascreen TR-FRET, 500 uM ATP). In kind it is biochemical. As to conditions: Assay A (values without *). On the procedure:
(§1) The potency of compounds was evaluated in vitro using the Lanthascreen® technology (ThermoFisher Scientific).
(§2) In a typical experiment, the reaction assay buffer contains 50 mM Tris pH8.2, 1 mM EGTA, 2.5 mM MgCl2, 0.05% Triton X100, 0.15% BSA and 1 mM DTT. The detection of the assay is performed using 1 nM Terbium labeled anti-phospho-LRRKtide (ThermoFisher Scientific) diluted in a TR-FRET buffer (ThermoFisher Scientific).
(§3) The experimental procedure was performed with Greiner small volume® 384-well. […] The working solution of compounds was prepared in a separate Greiner microplate.
(§4) The kinase reaction was initiated by addition of the ATP/LRRKtide substrate mix diluted in the reaction assay buffer. The reaction mix was incubated for at least 10 minutes at room temperature (initial velocity conditions). Reaction was stopped by addition of Terbium labeled anti-phospho-LRRKtide diluted into the detection buffer supplemented with EDTA (ThermoFisher Scientific). Plates are incubated for at least 30 minutes at room temperature and read on an Envision™ multimode plate reader (PerkinElmer) with LanthaScreen™. The TR-FRET 520:495 nm emission ratio was calculated and used to determine the IC50 value from a dose response curve fit to the 4-parameter logistic equation. The activity with respect to LRRK2 kinase in this test is given by the concentration which inhibits 50% of the LRRK2 activity (or IC50) in nM.
For orientation: TR-FRET usually uses a lanthanide donor and a delayed reading to cut background.

A further experiment addresses T2, full-length LRRK2 G2019S (Homo sapiens, UniProt Q5S007, G2019S).
T2 construct: DYKDDDDK (FLAG)
Put plainly: LRRK2-G2019S kinase activity assay (Lanthascreen TR-FRET). In kind it is biochemical. As to conditions: 1.1 mM ATP. Here is the method:
as §1, §2, §3, §4

pIC50: −log10 of the molar value.

T1 sequence (Q5S007 whole entry): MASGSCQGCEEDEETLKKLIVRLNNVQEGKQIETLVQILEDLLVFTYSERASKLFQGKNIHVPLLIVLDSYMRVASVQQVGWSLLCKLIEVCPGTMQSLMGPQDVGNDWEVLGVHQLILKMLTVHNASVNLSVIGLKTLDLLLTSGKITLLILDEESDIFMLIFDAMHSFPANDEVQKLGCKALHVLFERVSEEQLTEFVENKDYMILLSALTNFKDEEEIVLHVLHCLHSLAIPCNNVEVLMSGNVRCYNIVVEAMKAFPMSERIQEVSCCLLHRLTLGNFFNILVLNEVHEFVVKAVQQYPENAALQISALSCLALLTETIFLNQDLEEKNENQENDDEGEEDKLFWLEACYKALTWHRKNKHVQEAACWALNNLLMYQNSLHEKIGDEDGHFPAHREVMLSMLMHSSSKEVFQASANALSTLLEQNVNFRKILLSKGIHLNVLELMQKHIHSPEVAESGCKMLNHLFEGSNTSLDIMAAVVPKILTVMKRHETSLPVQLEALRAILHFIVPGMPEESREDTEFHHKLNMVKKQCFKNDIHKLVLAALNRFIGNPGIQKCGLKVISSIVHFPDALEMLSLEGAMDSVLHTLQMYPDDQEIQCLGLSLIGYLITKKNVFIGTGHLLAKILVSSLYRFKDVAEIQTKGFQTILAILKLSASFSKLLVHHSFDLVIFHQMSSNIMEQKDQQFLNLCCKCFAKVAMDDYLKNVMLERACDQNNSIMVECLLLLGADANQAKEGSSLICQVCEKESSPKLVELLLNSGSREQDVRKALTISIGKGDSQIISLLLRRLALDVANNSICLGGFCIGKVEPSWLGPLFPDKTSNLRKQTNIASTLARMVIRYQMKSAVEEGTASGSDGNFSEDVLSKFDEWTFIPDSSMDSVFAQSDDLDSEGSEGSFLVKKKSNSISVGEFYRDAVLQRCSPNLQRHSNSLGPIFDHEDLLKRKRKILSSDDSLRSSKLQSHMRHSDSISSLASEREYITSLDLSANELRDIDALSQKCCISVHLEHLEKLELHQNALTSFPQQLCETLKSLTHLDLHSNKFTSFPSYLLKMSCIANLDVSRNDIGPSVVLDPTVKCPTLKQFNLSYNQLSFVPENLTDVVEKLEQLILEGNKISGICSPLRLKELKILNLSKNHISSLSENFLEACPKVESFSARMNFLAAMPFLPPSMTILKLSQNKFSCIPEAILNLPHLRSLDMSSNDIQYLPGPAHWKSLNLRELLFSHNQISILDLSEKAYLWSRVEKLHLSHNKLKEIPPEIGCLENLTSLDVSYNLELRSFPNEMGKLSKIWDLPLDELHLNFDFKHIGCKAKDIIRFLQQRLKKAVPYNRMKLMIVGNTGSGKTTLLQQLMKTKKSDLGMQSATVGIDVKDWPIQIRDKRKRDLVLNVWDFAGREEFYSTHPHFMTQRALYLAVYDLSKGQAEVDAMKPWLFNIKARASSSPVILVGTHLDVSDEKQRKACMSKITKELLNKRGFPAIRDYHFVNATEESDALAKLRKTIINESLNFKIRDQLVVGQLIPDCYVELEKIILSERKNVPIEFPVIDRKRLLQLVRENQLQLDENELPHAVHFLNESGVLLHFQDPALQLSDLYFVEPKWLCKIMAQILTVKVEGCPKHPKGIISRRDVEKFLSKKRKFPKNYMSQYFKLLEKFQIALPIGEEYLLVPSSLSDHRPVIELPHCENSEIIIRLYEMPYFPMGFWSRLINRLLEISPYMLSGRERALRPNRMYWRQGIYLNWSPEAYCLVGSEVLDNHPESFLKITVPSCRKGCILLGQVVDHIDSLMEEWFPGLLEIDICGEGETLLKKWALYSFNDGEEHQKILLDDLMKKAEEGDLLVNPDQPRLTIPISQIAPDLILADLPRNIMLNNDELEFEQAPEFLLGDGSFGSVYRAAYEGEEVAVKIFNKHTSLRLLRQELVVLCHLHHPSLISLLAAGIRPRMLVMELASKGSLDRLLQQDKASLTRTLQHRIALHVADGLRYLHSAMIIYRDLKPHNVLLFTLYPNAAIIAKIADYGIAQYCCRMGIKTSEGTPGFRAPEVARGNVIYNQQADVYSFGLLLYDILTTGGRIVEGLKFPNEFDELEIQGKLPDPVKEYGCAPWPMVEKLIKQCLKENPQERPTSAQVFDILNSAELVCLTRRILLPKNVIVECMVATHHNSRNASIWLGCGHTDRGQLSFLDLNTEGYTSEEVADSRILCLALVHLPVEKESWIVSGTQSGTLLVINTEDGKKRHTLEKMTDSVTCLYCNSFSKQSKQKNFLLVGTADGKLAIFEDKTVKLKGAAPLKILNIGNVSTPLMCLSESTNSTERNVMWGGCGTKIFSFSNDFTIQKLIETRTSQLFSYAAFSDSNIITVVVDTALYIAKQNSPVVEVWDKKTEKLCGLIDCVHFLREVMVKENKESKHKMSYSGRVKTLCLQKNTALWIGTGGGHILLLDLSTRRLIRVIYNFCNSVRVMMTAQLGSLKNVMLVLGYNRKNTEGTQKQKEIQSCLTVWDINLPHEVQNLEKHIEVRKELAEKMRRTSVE
T2 sequence (Q5S007 whole entry G2019S): as the sequence (Q5S007 whole entry) above, with G2019S counted along it

As for `CC(C)Oc1nn(C)cc1Nc1ncc2cc(C#N)n([C@@H]3CO[C@H]3C)c2n1` (single isomer, unassigned) [Example 78, 7-[(trans)-2-methyloxetan-3-yl]-2-[(1-methyl-3-propan-2-yloxypyrazol-4-yl)amino]pyrrolo[2,3-d]pyrimidine-6-carbonitrile], the pIC50 in experiment [1] is 7.10; against full-length LRRK2 G2019S, 7.19.

Consider `CC(C)Oc1nn(C)cc1Nc1ncc2cc(C#N)n([C@@H]3CO[C@H]3C)c2n1` (single isomer, unassigned) [Example 79, 7-[(trans)-2-methyloxetan-3-yl]-2-[(1-methyl-3-propan-2-yloxypyrazol-4-yl)amino]pyrrolo[2,3-d]pyrimidine-6-carbonitrile], for which the pIC50 was 8.05 in experiment [1] and 8.22 against full-length LRRK2 G2019S.

For `COC[C@H](C)n1c(C#N)cc2cnc(Nc3cn(C)nc3O[C@@H]3CO[C@H]3C)nc21` (single isomer, unassigned) [Example 88], the pIC50 in experiment [1] is 7.70; against full-length LRRK2 G2019S it was 7.92.

Regarding `[2H]C([2H])([2H])n1cc(Nc2ncc3cc(C#N)n([C@@H](C)COC)c3n2)c(O[C@@H]2CO[C@H]2C)n1` (single isomer, unassigned) [Example 90], the pIC50 was 7.80 in experiment [1] and 8.10 on full-length LRRK2 G2019S.

On to `[2H]C([2H])([2H])n1cc(Nc2ncc3cc(C#N)n([C@@H](C)COC)c3n2)c(OC2COC2(C)C)n1` (single isomer, unassigned) [Example 99], for which the pIC50 was 7.47 in experiment [1] and 7.44 against full-length LRRK2 G2019S.

For `[2H]C([2H])([2H])n1cc(Nc2ncc3cc(C#N)n([C@@H](C)COC)c3n2)c(OC2COC2(C)C)n1` (single isomer, unassigned) [Example 100], the pIC50 in experiment [1] is 7.40; against full-length LRRK2 G2019S it was 7.41.

On to `[2H]C([2H])([2H])n1cc(Nc2ncc3cc(C#N)n([C@@H](C)COC)c3n2)c(OC2CCOC2)n1` (single isomer, unassigned) [Example 101], for which the pIC50 is 7.40 in experiment [1] and 7.47 against full-length LRRK2 G2019S.

In the case of `[2H]C([2H])([2H])n1cc(Nc2ncc3cc(C#N)n([C@@H](C)COC)c3n2)c(OC2CCOC2)n1` (single isomer, unassigned) [Example 102], the pIC50 in experiment [1] is 7.41; against full-length LRRK2 G2019S, 7.39.

As for `[2H]C([2H])([2H])n1cc(Nc2ncc3cc(C#N)n([C@H]4COC[C@@H]4C)c3n2)c(OC2COC(C)(C)C2)n1` (single isomer, unassigned) [Example 109], the pIC50 in experiment [1] is 7.59; on full-length LRRK2 G2019S, 7.42.

`[2H]C([2H])([2H])n1cc(Nc2ncc3cc(C#N)n([C@H]4COC[C@@H]4C)c3n2)c(OC2COC(C)(C)C2)n1` (single isomer, unassigned) [Example 110]: the pIC50 in experiment [1] is 8.40; against full-length LRRK2 G2019S, 8.10.

For `[2H]C([2H])([2H])n1cc(Nc2ncc3cc(C#N)n([C@H]4COC[C@@H]4C)c3n2)c(OC2CCOC2)n1` (single isomer, unassigned) [Example 111], the results for the pIC50 (in experiment [1]; on full-length LRRK2 G2019S) were 7.77 and 7.66, respectively.

For `[2H]C([2H])([2H])n1cc(Nc2ncc3cc(C#N)n([C@H]4COC[C@@H]4C)c3n2)c(OC2CCOC2)n1` (single isomer, unassigned) [Example 112], the pIC50 in experiment [1] was 7.89; against full-length LRRK2 G2019S, 7.80.

As for `[2H]C([2H])([2H])n1cc(Nc2ncc3cc(C#N)n([C@H]4COC[C@@H]4C)c3n2)c(O[C@@H]2COC[C@H]2O)n1` (single isomer, unassigned) [Example 114], the results for the pIC50 (in experiment [1]; on full-length LRRK2 G2019S) were 7.70 and 7.55, respectively.

For the compound `[2H]C([2H])([2H])n1cc(Nc2ncc3cc(C#N)n([C@H]4COC[C@@H]4C)c3n2)c(O[C@@H]2COC[C@H]2O)n1` (single isomer, unassigned) [Example 115], the pIC50 was 7.85 in experiment [1] and 7.77 on full-length LRRK2 G2019S.

`[2H]C([2H])([2H])n1cc(Nc2ncc3cc(C#N)n([C@@H](C)COC)c3n2)c(O[C@@H]2COC[C@H]2O)n1` (single isomer, unassigned) [Example 116]: the pIC50 in experiment [1] is 7.37; at full-length LRRK2 G2019S, 7.30.

Regarding `[2H]C([2H])([2H])n1cc(Nc2ncc3cc(C#N)n([C@@H](C)COC)c3n2)c(O[C@@H]2COC[C@H]2O)n1` (single isomer, unassigned) [Example 117], the pIC50 was 7.47 in experiment [1] and 7.30 against full-length LRRK2 G2019S.

Take `[2H]C([2H])([2H])n1cc(Nc2ncc3cc(C#N)n([C@H]4COC[C@@H]4C)c3n2)c(OC2COC2(C)C)n1` (single isomer, unassigned) [Example 118]: the pIC50 in experiment [1] was 7.85; at full-length LRRK2 G2019S, 7.54.

For `[2H]C([2H])([2H])n1cc(Nc2ncc3cc(C#N)n([C@H]4COC[C@@H]4C)c3n2)c(OC2COC2(C)C)n1` (single isomer, unassigned) [Example 119], the pIC50 in experiment [1] is 7.92; against full-length LRRK2 G2019S, 7.77.

For `[2H]C([2H])([2H])n1cc(Nc2ncc3cc(C#N)n(C4CCOCC4)c3n2)c(OC2COC2(C)C)n1` (single isomer, unassigned) [Example 120, 2-((3-((2,2-dimethyloxetan-3-yl)oxy)-1-(methyl-d3)-1 H-pyrazol-4-yl)amino)-7-(tetrahydro-2H-pyran-4-yl)-7H-pyrrolo[2,3-d]pyrimidine-6-carbonitrile], the pIC50 in experiment [1] is 6.76; against full-length LRRK2 G2019S it was 6.75.

In the case of `[2H]C([2H])([2H])n1cc(Nc2ncc3cc(C#N)n(C4CCOCC4)c3n2)c(OC2COC2(C)C)n1` (single isomer, unassigned) [Example 121, 2-((3-((2,2-dimethyloxetan-3-yl)oxy)-1-(methyl-d3)-1 H-pyrazol-4-yl)amino)-7-(tetrahydro-2H-pyran-4-yl)-7H-pyrrolo[2,3-d]pyrimidine-6-carbonitrile], the negative logarithm of the IC50 (pIC50) in experiment [1] is 6.88; on full-length LRRK2 G2019S, 6.74.

In the case of `COCC(C)n1cc(Nc2ncc3cc(C#N)n(C4CCOCC4)c3n2)c(OC2CC2)n1` (single isomer, unassigned) [Example 126, 2-((3-cyclopropoxy-1-(1-methoxypropan-2-yl)-1 H-pyrazol-4-yl)amino)-7-(tetrahydro-2H-pyran-4-yl)-7H-pyrrolo[2,3-d]pyrimidine-6-carbonitrile], the pIC50 in experiment [1] is 7.11; against full-length LRRK2 G2019S, 7.08.

As to `COCC(C)n1cc(Nc2ncc3cc(C#N)n(C4CCOCC4)c3n2)c(OC2CC2)n1` (single isomer, unassigned) [Example 127, 2-((3-cyclopropoxy-1-(1-methoxypropan-2-yl)-1 H-pyrazol-4-yl)amino)-7-(tetrahydro-2H-pyran-4-yl)-7H-pyrrolo[2,3-d]pyrimidine-6-carbonitrile], the pIC50 is 6.84 in experiment [1] and 6.74 against full-length LRRK2 G2019S.

Take `COCC(C)n1cc(Nc2ncc3cc(C#N)n([C@@H](C)COC)c3n2)c(OC2COC2)n1` (single isomer, unassigned) [Example 129]: the pIC50 in experiment [1] was 7.39; against full-length LRRK2 G2019S it was 7.43.

Regarding `COCC(C)n1cc(Nc2ncc3cc(C#N)n([C@@H](C)COC)c3n2)c(OC2COC2)n1` (single isomer, unassigned) [Example 130], the pIC50 is 7.21 in experiment [1] and 7.24 against full-length LRRK2 G2019S.

For `[2H]C([2H])([2H])n1cc(Nc2ncc3cc(C#N)n([C@@H](C)COC)c3n2)c(OC2C(C)(C)C(O)C2(C)C)n1` (single isomer, unassigned) [Example 132], the values for the pIC50 (in experiment [1]; against full-length LRRK2 G2019S) were 7.44 and 7.49, respectively.

On to `[2H]C([2H])([2H])n1cc(Nc2ncc3cc(C#N)n([C@@H](C)COC)c3n2)c(OC2C(C)(C)C(O)C2(C)C)n1` (single isomer, unassigned) [Example 133], for which the pIC50 in experiment [1] is 7.89; on full-length LRRK2 G2019S, 7.85.

As to `[2H]C([2H])([2H])n1cc(Nc2ncc3cc(C#N)n([C@@H](C)COC)c3n2)c(OC2CC(O)C2(C)C)n1` (single isomer, unassigned) [Example 134], the pIC50 in experiment [1] is 8.52; against full-length LRRK2 G2019S, 8.30.

Turning to `[2H]C([2H])([2H])n1cc(Nc2ncc3cc(C#N)n([C@@H](C)COC)c3n2)c(OC2CC(O)C2(C)C)n1` (single isomer, unassigned) [Example 135], the figures for the pIC50 (in experiment [1]; at full-length LRRK2 G2019S) were 7.37 and 7.41, respectively.

Turning to `[2H]C([2H])([2H])n1cc(Nc2ncc3cc(C#N)n([C@@H](C)COC)c3n2)c(O[C@@H]2COC[C@@H]2O)n1` (single isomer, unassigned) [Example 136], the pIC50 is 7.02 in experiment [1] and 7.09 against full-length LRRK2 G2019S.

Regarding `[2H]C([2H])([2H])n1cc(Nc2ncc3cc(C#N)n(C4COCC4C)c3n2)c(OC2CCC2(C)O)n1` (single isomer, unassigned) [Example 141], the pIC50 was 7.36 in experiment [1] and 7.27 against full-length LRRK2 G2019S.

In the case of `C[C@@H]1COCC[C@H]1n1c(C#N)cc2cnc(Nc3cn(CCO)nc3OC3COC3)nc21` (single isomer, unassigned) [Example 160, 2-((1-(2-hydroxyethyl)-3-(oxetan-3-yloxy)-1 H-pyrazol-4-yl)amino)-7-(trans-3-methyltetrahydro-2H-pyran-4-yl)-7H-pyrrolo[2,3-d]pyrimidine-6-carbonitrile], the figures for the pIC50 (in experiment [1]; on full-length LRRK2 G2019S) were 6.49 and 6.59, respectively.

The term pIC50 denotes the negative decadic logarithm of the IC50, by convention in mol/L. A low value points to a high IC50.
